Experimental data from ChEMBL document CHEMBL1201862, “PubChem BioAssay data set” (2004).
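All cell lines were grown in 96-well plates and treated with compound for 48 hours. GI50 = concentration required for 50% inhibition of growth.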 Activity calls are given as the source filed them. Cut-off read from the data, not from the text of the source: active = GI50 up to about 1.1 µM and inactive = higher.

Experiments:
Assay in all cases: NCI-60 cell line screen, 48 h
A549 = system: A549
SF-268 = system: SF-268
UACC-257 = system: UACC-257
UO-31 = system: UO-31
Malme-3M = system: Malme-3M
OVCAR-8 = system: OVCAR-8
NCI-H226 = system: NCI-H226
CAKI-1 = system: CAKI-1
SR = system: SR
OVCAR-4 = system: OVCAR-4
MOLT-4 = system: MOLT-4
NCI-H460 = system: NCI-H460
SK-MEL-2 = system: SK-MEL-2
ACHN = system: ACHN
HCC 2998 = system: HCC 2998
TK-10 = system: TK-10
RPMI-8226 = system: RPMI-8226

SMILES | GI50 (A549) | GI50 (SF-268) | GI50 (UACC-257) | GI50 (UO-31) | GI50 (Malme-3M) | GI50 (OVCAR-8) | GI50 (NCI-H226) | GI50 (CAKI-1) | GI50 (SR) | GI50 (OVCAR-4) | GI50 (MOLT-4) | GI50 (NCI-H460) | GI50 (SK-MEL-2) | GI50 (ACHN) | GI50 (HCC 2998) | GI50 (TK-10) | GI50 (RPMI-8226)
CC#CC1/C(=C\C(=O)OC)CCCC1O (stereo unspecified) | > 100 µM (inactive) | > 100 µM (inactive) | > 100 µM (inactive) | > 100 µM (inactive) | > 100 µM (inactive) | > 100 µM (inactive) | > 100 µM (inactive) | > 100 µM (inactive) | > 100 µM (inactive) | > 100 µM (inactive) | > 100 µM (inactive) | > 100 µM (inactive) | > 100 µM (inactive) | > 100 µM (inactive) | > 100 µM (inactive) | > 100 µM (inactive) | 
Cc1cc(=O)oc2c1cc(OCC(=O)OCCN1CCCCC1)c1occ(C)c12 | > 100 µM (inactive) |  | > 100 µM (inactive) | > 100 µM (inactive) | > 100 µM (inactive) | > 100 µM (inactive) | > 100 µM (inactive) | > 100 µM (inactive) |  | > 100 µM (inactive) | > 100 µM (inactive) | > 100 µM (inactive) | > 100 µM (inactive) | > 100 µM (inactive) | > 100 µM (inactive) | > 100 µM (inactive) | > 100 µM (inactive)
O=c1/c(=C/c2ccco2)sc2nc3ccccc3n12 | > 10 µM (inactive) | > 10 µM (inactive) | > 10 µM (inactive) | > 10 µM (inactive) | > 10 µM (inactive) | > 10 µM (inactive) | > 10 µM (inactive) | > 10 µM (inactive) | > 10 µM (inactive) | > 10 µM (inactive) | > 10 µM (inactive) | > 10 µM (inactive) | > 10 µM (inactive) | > 10 µM (inactive) | > 10 µM (inactive) | 50 µM (inactive) | > 10 µM (inactive)
c1ccc([S+](c2ccccc2)c2ccc(Sc3ccc([S+](c4ccccc4)c4ccccc4)cc3)cc2)cc1 | 9.79 µM (inactive) | 22.3 µM (inactive) | 12.5 µM (inactive) | 60 µM (inactive) | 32.6 µM (inactive) | 20.3 µM (inactive) | 25.5 µM (inactive) | 75.5 µM (inactive) | 6.44 µM (inactive) | 20.6 µM (inactive) | 9.73 µM (inactive) | 29.6 µM (inactive) |  | 26.4 µM (inactive) | 20.2 µM (inactive) | 36.2 µM (inactive) | 4.88 µM (inactive)
CC1(C)CCC(=O)c2c(O)ccc(O)c21 | > 100 µM (inactive) | > 100 µM (inactive) | 25.1 µM (inactive) | > 100 µM (inactive) | > 100 µM (inactive) | 91.8 µM (inactive) | > 100 µM (inactive) | 71.8 µM (inactive) | > 10 µM (inactive) | > 100 µM (inactive) | 41.7 µM (inactive) |  | 86.5 µM (inactive) |  | > 100 µM (inactive) | > 100 µM (inactive) | 55.3 µM (inactive)
CC(NS(=O)(=O)c1ccc(Cl)cc1)C(=O)O (stereo unspecified) | > 100 µM (inactive) | > 100 µM (inactive) | > 100 µM (inactive) | > 100 µM (inactive) | > 100 µM (inactive) | > 100 µM (inactive) |  | > 100 µM (inactive) |  | > 100 µM (inactive) | > 100 µM (inactive) | > 100 µM (inactive) | > 100 µM (inactive) | > 100 µM (inactive) |  | > 100 µM (inactive) | > 100 µM (inactive)
N#CC1CCCCC1NC1(C#N)CCCCC1 (stereo unspecified) | > 100 µM (inactive) | > 100 µM (inactive) | > 100 µM (inactive) | > 100 µM (inactive) | > 100 µM (inactive) | > 100 µM (inactive) | > 100 µM (inactive) | > 100 µM (inactive) |  |  | > 100 µM (inactive) |  | > 100 µM (inactive) |  | > 100 µM (inactive) | > 100 µM (inactive) | > 100 µM (inactive)
CSc1ccc2c(cc1=O)[C@@H](NC(=O)c1cc(O)c(O)c(O)c1)CCc1cc(O)c(O)c(O)c1-2 | 27.7 µM (inactive) | 37.4 µM (inactive) | 18 µM (inactive) | 25.9 µM (inactive) | 30 µM (inactive) | 24 µM (inactive) | 16 µM (inactive) |  | 18.6 µM (inactive) | 8.93 µM (inactive) | 18.5 µM (inactive) | 20 µM (inactive) |  | 34.1 µM (inactive) | > 100 µM (inactive) | 41.6 µM (inactive) | 
N/N=C(\c1nc2ccc(Cl)cc2nc1O)C(O)c1ccc(Cl)c(Cl)c1 (stereo unspecified) | > 100 µM (inactive) | > 100 µM (inactive) | > 100 µM (inactive) | > 100 µM (inactive) | > 100 µM (inactive) | 72.6 µM (inactive) | > 100 µM (inactive) |  | > 100 µM (inactive) | 29.1 µM (inactive) | > 100 µM (inactive) | > 100 µM (inactive) | > 100 µM (inactive) | > 100 µM (inactive) | > 100 µM (inactive) | > 100 µM (inactive) | > 100 µM (inactive)
O=C(O)C12C3C4C1C1C2C3C41I (stereo unspecified) | > 100 µM (inactive) | > 100 µM (inactive) | > 100 µM (inactive) | > 100 µM (inactive) | > 100 µM (inactive) | > 100 µM (inactive) | > 100 µM (inactive) | > 100 µM (inactive) |  | > 100 µM (inactive) | > 100 µM (inactive) | > 100 µM (inactive) | > 100 µM (inactive) | > 100 µM (inactive) | > 100 µM (inactive) | > 100 µM (inactive) | > 100 µM (inactive)
O=S(=O)(N/N=C\c1c2ccccc2[n+]([O-])c2ccccc12)c1ccc(Cl)cc1 | > 100 µM (inactive) | > 100 µM (inactive) | > 100 µM (inactive) | > 100 µM (inactive) | 53.1 µM (inactive) | > 100 µM (inactive) | 30.3 µM (inactive) | > 100 µM (inactive) |  | 33.3 µM (inactive) | 58.6 µM (inactive) | > 100 µM (inactive) | 46.1 µM (inactive) | 35.6 µM (inactive) | > 100 µM (inactive) | > 100 µM (inactive) | > 100 µM (inactive)
CCOC(=O)C(C)(C)Oc1ccc2c(C)c(-c3ccc(Cl)cc3)c(=O)oc2c1 | 37.6 µM (inactive) | > 100 µM (inactive) | 43.8 µM (inactive) | 55.5 µM (inactive) | 33.3 µM (inactive) | > 100 µM (inactive) | 14.9 µM (inactive) |  | 27.7 µM (inactive) | > 100 µM (inactive) | 20 µM (inactive) | > 100 µM (inactive) | > 100 µM (inactive) | 98.6 µM (inactive) | 59 µM (inactive) | > 100 µM (inactive) | 22.6 µM (inactive)
C/C=C1\CN2CCc3c([nH]c4ccccc34)C2CC1C(=O)OC (stereo unspecified) | > 322 µM (inactive) | > 322 µM (inactive) | > 322 µM (inactive) |  | > 322 µM (inactive) | > 322 µM (inactive) | > 322 µM (inactive) | > 322 µM (inactive) | > 322 µM (inactive) |  | > 322 µM (inactive) | > 322 µM (inactive) | > 322 µM (inactive) | > 322 µM (inactive) | > 322 µM (inactive) | > 322 µM (inactive) | > 322 µM (inactive)
O=C1C(Cl)=C(Cl)C(=O)N1c1ccc(Cl)c(Cl)c1Cl | > 100 µM (inactive) | 38 µM (inactive) | > 100 µM (inactive) | > 100 µM (inactive) | 31.6 µM (inactive) |  | > 100 µM (inactive) | 25.5 µM (inactive) | 26.9 µM (inactive) | 28.4 µM (inactive) | 32.6 µM (inactive) | > 100 µM (inactive) | > 100 µM (inactive) | 75 µM (inactive) | > 100 µM (inactive) | > 100 µM (inactive) | 34 µM (inactive)
Cc1cc(C)c2c(c1C)CN1CN2Cc2c(C)c(C)cc(C)c21 | 80.9 µM (inactive) | > 100 µM (inactive) |  | > 100 µM (inactive) | > 100 µM (inactive) | > 100 µM (inactive) | > 100 µM (inactive) | > 100 µM (inactive) | > 100 µM (inactive) | 7.98 µM (inactive) | > 100 µM (inactive) | 48.4 µM (inactive) |  | > 100 µM (inactive) |  | > 100 µM (inactive) | > 100 µM (inactive)
CCCCCCc1cc2c(C)c(C)c(=O)oc2cc1OCCCOc1cc2oc(=O)c(C)c(C)c2cc1CCCCCC | > 100 µM (inactive) | > 100 µM (inactive) | > 100 µM (inactive) | > 100 µM (inactive) | > 100 µM (inactive) | > 100 µM (inactive) |  | > 100 µM (inactive) | > 100 µM (inactive) |  | > 100 µM (inactive) | > 100 µM (inactive) | > 100 µM (inactive) |  |  | > 100 µM (inactive) | > 100 µM (inactive)
Cc1ccc2nc3c(C(=O)NCCN(C)C)cccc3nc2c1 | 4.61 µM (inactive) |  | 3.8 µM (inactive) |  | 2.47 µM (inactive) | 3.48 µM (inactive) | 2.59 µM (inactive) |  | 1.01 µM (active) | 4.69 µM (inactive) | 1.64 µM (inactive) |  | 2.76 µM (inactive) | 1.91 µM (inactive) | 6.05 µM (inactive) | 3.73 µM (inactive) | 3.6 µM (inactive)
CC1(C)OC(C[C@]2(C#N)C[C@H](CCl)OC(C)(C)O2)C[C@@H](C[C@]2(C#N)C[C@H](CCl)OC(C)(C)O2)O1 (stereo partly specified) | > 100 µM (inactive) | > 100 µM (inactive) | 17.3 µM (inactive) |  | > 100 µM (inactive) | > 100 µM (inactive) | > 100 µM (inactive) | > 100 µM (inactive) | 20 µM (inactive) | > 100 µM (inactive) | 38.8 µM (inactive) | > 100 µM (inactive) | > 100 µM (inactive) | > 100 µM (inactive) | > 100 µM (inactive) | > 100 µM (inactive) | > 100 µM (inactive)
